Laboratory results taken from patent publication US12139477B2, “Compounds, salts thereof and methods for treatment of diseases” (ACADIA PHARMACEUTICALS INC., priority 2017, dated 2024).

How the values were obtained:
[1] = target: T1, hERG channel (Homo sapiens, UniProt Q12809); test: hERG assay, whole cell recordings in CHO cells (AVIVA); type: cell-based; conditions: CHO cells stably expressing hERG, pH 7.4
T1 construct: host or cells: CHO cells, stably transfected
Protocol: The most common mechanism for these adverse events is the inhibition of one or more cardiac potassium channels, in particular hERG. This current is important for cardiac myocyte repolarization and is a common target for drugs that prolong the QT interval. Test articles in this study were therefore characterized to determine their ability to inhibit the hERG channel. Ion channel activity was measured at AVIVA Biosciences Corporation (San Diego, CA), using a stably transfected Chinese Hamster Ovary (CHO) cell line expressing the hERG mRNA.
Cells: AVIVA's CHO cell line, which stably expresses hERG channels, was used for the study. Cells were cultured in DMEM/F12 containing 10% FBS, 1% penicillin/streptomycin and 500 μg/ml G418. Before testing, cells were harvested using Accumax (Innovative Cell Technologies).
Solutions: For electrophysiological recordings, the following solutions were used: External Solution: 2 mM CaCl2); 2 mM MgCl2; 4 mM KCl; 150 mM NaCl; 10 mM Glucose; 10 mM HEPES; 305-315 mOsm; pH 7.4 (adjusted with 5M NaOH); Internal Solution: 140 mM KCl; 10 mM MgCl2; 6 mM EGTA; 5 mM HEPES-Na; 5 mM ATP-Mg; 295-305 mOsm; pH 7.25 (adjusted with 1M KOH).
Electrophysiology: Whole cell recordings were performed using PX 7000A (Axon Instruments) with AVIVA's SealChip™ technology. Cells were voltage clamped at a holding potential of −80 mV. The hERG current was then activated by a depolarizing step to −50 mV for 300 ms. This first step at −50 mV was used as a baseline for measuring peak amplitude of the tail current. Next, a voltage step to +20 mV was applied for 5 s to activate the channels. Finally, a step back to −50 mV for 5 s removed activation and the deactivating tail current was recorded.
Test Article Handling and Dilutions: All test articles were prepared from 10 mM DMSO stock solutions provided by Sponsor. Solutions were mixed by sonication for 20 min, followed by vigorous vortexing. Prior to testing, compounds were diluted to test concentrations in glass vials using External Solution. Dilutions were prepared no longer than 20 min prior to use.
Electrophysiology Procedures: After achieving whole cell configuration, cells were monitored for 90 s to assess stability and then washed with External Solution for 66 s. The voltage protocol previously described was then applied to the cells every 12 s throughout the procedure. Only stable cells with recording parameters above threshold (see Quality Control section) were allowed to enter the drug addition procedure. External solution containing 0.1% DMSO (vehicle) was applied to the cells to establish a baseline. […] Test article solutions were added to cells in 4 separate additions. Cells were kept in test solution until effect of the test article reached steady state, to a maximum of 12 min. Next, 1 μM cisapride (positive control) was added. Finally, washout with External Solution was performed until the recovery current reached steady state.
Data Analysis: Data analysis was performed using DataXpress (Axon Instruments), Clampfit (Axon Instruments) and Origin (OriginLab Corporation) software.

[2] = target: 5HT2A (Homo sapiens, UniProt P28223); test: Beta-arrestin recruitment assay (Tango technology, antagonist mode); type: cell-based; set-up: engineered protease cleavage site followed by tethered transcription factor (C); conditions: read-out: 5HT2A (pIC50) Beta-arrestin (converted)
Description: Beta-Arrestin Recruitment Assay:
Detecting GPCR Signaling Using the Tango Technology
GPCR signaling through beta-arrestin was detected by the Tango Technology at Thermofisher. This technology is based upon the interaction of intracellular beta-arrestin proteins and the target receptor. Upon ligand binding to the target receptor, the protease tagged arrestin is stimulated and recruited to the engineered protease site on the C-terminus of the GPCR, which triggers release of the tethered transcription factor. The free transcription factor then enters the nucleus and stimulates the beta-lactamase (bla) activity.
Test compounds are received at 1000× (or greater) of the desired starting concentration in 100% DMSO. The 1000× test compounds are serially diluted (10 point […] increments) in 100% DMSO.
Antagonist Assay Protocol:
An Agonist assay screen (see above) is run to obtain the EC80 concentration of the known activator to add in step 3.
1. 32 μL of cells diluted in Assay Media to appropriate cell density are added to the assay plate. If needed, cells are incubated at 37° C./5% CO2 for 6 or 16-24 hours (depending upon cell line specifics) before compound is added.
2. 40 nL of 1000× compound or known antagonist titration plus 4 μL of Assay Media is added to the cells in the assay plate and incubated for 30 minutes at 37° C./5% CO2 in a humidified incubator.
3. 4 μL of the 10×EC80 concentration of agonist, as determined in an Agonist assay, is added to all wells containing test compound and known inhibitor to bring the final assay volume to 40 μL.
4. 4 μL of Assay Media is added to remaining control wells to bring the volume up to 40 μL.
5. The assay plate is incubated for 5 or 16 hours (depending upon cell line specifics) at 37° C./5% CO2 in a humidified incubator.
6. 8 μL of the Substrate Loading Solution is added to the assay plate.
7. The assay plate is incubated for 2 hours at room temperature, in the dark.
8. The assay plate is read on a fluorescence plate reader (Tecan Safire2) and the data is analyzed.
SelectScreen Cell-Based GPCR Profiling Service uses XLfit from IDBS. The dose response curve is curve fit to model number 205 (sigmoidal dose-response model). Custom logic was built in-house for the data analysis tool to address the different compound characteristics that can be observed with functional assays. Using this logic the relative EC50/IC50 value for each given compound is provided.

[3] = target: hERG potassium channel (Homo sapiens, UniProt Q12809); test: in vitro; conditions: human, pH 7.4
Protocol: Each cell acted as its own control.
Temperature was measured using a thermistor probe in the recording chamber.

[4] = target: hCav1.2/β2/α2δ channels (Homo sapiens, UniProt Q13936); test: CaV1.2 manual patch clamp, CHO cells (CR-CLE); type: cell-based; conditions: 0.1 μM, positive control, previous results, read-out: inhibition of hCav1.2 current
Description: Stocks were maintained in cryogenic storage. […] Each culture dish was identified by a notation of channel name, passage number, and date.
Rationale for Selection of Ion Channel and Expression Systems: Reduction of ICa,L is associated with action potential shortening in atrial fibrillation (Van Wagoner, et al., Circ Res 85:428-436 (1999)) while augmentation of ICa,L current may produce action potential prolongation (Ahmmed, et al., Circ Res 86:558-570 (2000)) and early after depolarizations (January, et al., Circ Res 62:563-571 (1988)). ICa.L is produced by the combination of calcium channel subunits encoded by CACNA1C (α1-subunit), CACNB2 (β2-subunit) and CACNA2D1 (α2δ-subunit) cDNAs.
• Organism: Cricetulus griseus • Tissue: Ovary; transfected with human CACNA1C • (α1-subunit), CACNB2 (β2-subunit), and • CACNA2D1 (α2δ-subunit) cDNAs • Morphology: Epithelial • Age/Stage: Adult • Source Strain: ATCC, Manassas, VA • Source Substrain: CR-CLE
CHO Cell Culture Procedures: CHO cells were stably co-transfected with human CACNA1C (α1-subunit), CACNB2 (β2-subunit), and CACNA2D1 (α2δ-subunit) cDNAs. Stable transfectants were selected by coexpression of the cDNAs with antibiotic resistance genes for blasticidin, hygromycin, G418, and zeocin. Selection pressure was maintained by including these antibiotics in the culture medium. Cells were cultured in Ham's F12 Medium supplemented with 10% fetal bovine serum, penicillin-streptomycin (100 units/mL), blasticidin (10 μg/mL), zeocin (400 μg/mL), G418 (250 μg/mL) and hygromycin (250 μg/mL). To avoid Ca^2+-induced toxicity, verapamil (3 μmol/L) was added to the cultured cells.
hCav1.2/β2/α2δ-CHO is a tetracycline-inducible cell line. To induce expression, tetracycline at a final concentration of 1 μg/mL was added to media lacking the selection antibiotics. Currents were recorded greater than 16 hours post-induction.
Treatment Groups: All experiments were performed at room temperature. Each cell acted as its own control.
Each concentration was tested in at least three cells (n≥3).
Positive Control Group: The positive control article nifedipine (Sigma-Aldrich) was tested in two cells (n=2) at 0.1 μM. Previous results have shown that nifedipine at 0.1 μM inhibits hCav1.2 current by approximately 90%.
Electrophysiological Procedures: Cells were superfused with vehicle control solution. Micropipette solution for whole cell patch clamp recordings was composed of (mM): Cs-methanesulfonate (MES), 130; TEA-Cl, 20, MgCl2, 1; EGTA, 10; Mg-ATP, 4; Tris-GTP, 0.3, phosphocreatine di-(Tris) salt, 14, creatine phosphokinase, 50 U/mL, and HEPES, 10; pH adjusted to 7.2 with N-methyl-D-glucamine or CsOH. Micropipette solution was prepared in batches, aliquoted, stored frozen, and a fresh aliquot thawed each day. […] Before digitization, current records were low-pass filtered at one-fifth of the sampling frequency.
Experimental Procedures: Onset and steady inhibition was evaluated at a test potential of 0 mV (150 ms duration), repeated at ten-second intervals from a holding potential of −40 mV. Peak current was measured during the step to 0 mV. Peak current was monitored until a new steady state was achieved. hCav1.2 current was monitored until a new steady state was achieved and a steady state was maintained for at least 20 s before applying test article or positive control article formulations. […]
Nonlinear least squares fits were solved with the Solver add-in for Excel 2003 or later (Microsoft, Redmond, WA) and the IC50 was calculated.

Chain of 5HT2A (P28223 whole entry): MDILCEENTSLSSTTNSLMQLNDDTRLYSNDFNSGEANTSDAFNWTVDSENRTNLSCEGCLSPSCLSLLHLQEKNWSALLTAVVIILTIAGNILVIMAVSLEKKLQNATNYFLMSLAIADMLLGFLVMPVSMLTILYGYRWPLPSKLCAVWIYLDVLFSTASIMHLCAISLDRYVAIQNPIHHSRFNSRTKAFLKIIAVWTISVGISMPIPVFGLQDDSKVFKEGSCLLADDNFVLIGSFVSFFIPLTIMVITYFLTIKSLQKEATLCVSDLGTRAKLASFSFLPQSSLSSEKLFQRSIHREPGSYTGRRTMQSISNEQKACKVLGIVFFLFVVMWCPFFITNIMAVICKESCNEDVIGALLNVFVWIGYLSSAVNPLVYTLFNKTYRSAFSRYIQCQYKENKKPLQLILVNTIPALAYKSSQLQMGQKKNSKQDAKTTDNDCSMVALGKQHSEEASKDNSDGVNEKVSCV
T1 sequence (Q12809 whole entry): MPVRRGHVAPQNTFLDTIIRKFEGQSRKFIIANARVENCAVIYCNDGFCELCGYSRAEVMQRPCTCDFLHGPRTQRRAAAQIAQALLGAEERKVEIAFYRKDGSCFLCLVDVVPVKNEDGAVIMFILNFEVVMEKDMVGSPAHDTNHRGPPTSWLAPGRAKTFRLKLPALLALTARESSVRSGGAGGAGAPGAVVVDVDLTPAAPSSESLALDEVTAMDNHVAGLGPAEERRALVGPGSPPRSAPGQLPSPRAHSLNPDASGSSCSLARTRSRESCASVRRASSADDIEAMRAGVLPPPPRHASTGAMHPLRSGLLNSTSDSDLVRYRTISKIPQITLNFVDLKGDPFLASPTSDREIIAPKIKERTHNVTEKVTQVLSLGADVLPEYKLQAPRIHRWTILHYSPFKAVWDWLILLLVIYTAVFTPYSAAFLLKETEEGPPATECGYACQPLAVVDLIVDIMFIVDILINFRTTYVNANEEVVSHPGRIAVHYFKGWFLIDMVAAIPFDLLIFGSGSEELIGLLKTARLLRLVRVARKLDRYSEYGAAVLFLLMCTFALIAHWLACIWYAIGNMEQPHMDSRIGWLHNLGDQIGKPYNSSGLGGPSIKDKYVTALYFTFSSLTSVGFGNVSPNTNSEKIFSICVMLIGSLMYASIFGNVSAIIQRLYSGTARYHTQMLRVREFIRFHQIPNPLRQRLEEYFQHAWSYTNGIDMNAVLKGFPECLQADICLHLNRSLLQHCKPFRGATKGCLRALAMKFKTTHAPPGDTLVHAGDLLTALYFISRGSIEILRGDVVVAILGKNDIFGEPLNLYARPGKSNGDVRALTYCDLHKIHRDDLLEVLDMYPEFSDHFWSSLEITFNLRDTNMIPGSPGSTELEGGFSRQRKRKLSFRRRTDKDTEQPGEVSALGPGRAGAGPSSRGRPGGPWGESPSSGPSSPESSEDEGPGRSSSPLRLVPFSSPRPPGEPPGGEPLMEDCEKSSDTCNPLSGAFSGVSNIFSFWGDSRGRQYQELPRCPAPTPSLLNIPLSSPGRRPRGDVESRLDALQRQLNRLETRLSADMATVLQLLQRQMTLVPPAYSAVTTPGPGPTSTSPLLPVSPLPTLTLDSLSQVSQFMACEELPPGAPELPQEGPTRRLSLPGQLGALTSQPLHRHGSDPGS
Chain of hERG potassium channel (Q12809 whole entry): as above

| Structure (SMILES) | inhibition at 1 µM [1] [%] | IC50 [2] [nM] | inhibition at 0.09 µM [3] [%] | inhibition at 0.1 µM [4] [%] |
| --- | --- | --- | --- | --- |
| CN1CCC(N(Cc2ccc(F)cc2F)C(=O)NCc2ccc3c(c2)CCN3C)CC1 [Example 23] | 13 | 15.8 |  |  |
| Cc1noc2cc(CNC(=O)N(Cc3ccc(F)cc3F)C3CCN(C)CC3)ccc12 [Example 24] | 10 | 126 |  |  |
| Cc1cc2cc(CNC(=O)N(Cc3ccc(F)cc3F)C3CCN(C)CC3)ccc2[nH]1 [Example 36] | 29 | 25.1 |  |  |
| CN1CCC(N(Cc2ccc(F)cc2F)C(=O)NCc2ccc3c(c2)CCS3(=O)=O)CC1 [Example 37] | 8 | 631 |  |  |
| CN1CCC(N(Cc2ccc(F)cc2F)C(=O)NCc2ccc3c(c2)CCC3)CC1 [Example 38] |  | 3.98 |  |  |
| CN1CCC(N(Cc2ccc(F)cc2F)C(=O)NCc2ccc3ncsc3c2)CC1 [Example 39] | 21 | 15.8 |  |  |
| Cc1n[nH]c2ccc(CNC(=O)N(Cc3ccc(F)cc3F)C3CCN(C)CC3)cc12 [Example 42] |  | 251 |  |  |
| CC(C)Oc1ccc(CNC(=O)N(Cc2ccc(C#N)cc2F)C2CCN(C)CC2)cc1 [Example 43] | 42 | 126 |  |  |
| CC(C)Oc1ccc(CNC(=O)N(Cc2ccc([N+](=O)[O-])cc2F)C2CCN(C)CC2)cc1 [Example 44] | 70 | 158 |  |  |
| O=C(O)C(F)(F)F.[2H]C([2H])([2H])C(N1CCC(N(Cc2ccc(F)cc2F)C(=O)NCc2ccc(OC(C)C)cc2)CC1)C([2H])([2H])[2H] [Example 75, 1-[(2,4-difluorophenyl)methyl]-1-{1-[(1,1,1,3,3,3-^2H6)propan-2-yl]piperidin-4-yl}-3-{[4-(propan-2-yloxy)phenyl]methyl}urea; Trifluoroacetic Acid] |  | 3.98 |  |  |
| COc1cc(N)c(Cl)cc1C(=O)NC1CCN(CCCOc2ccc(F)cc2)CC1OC (stereo not shown) [cisapride, reference compound] |  |  | ~80 |  |
| COC(=O)C1=C(C)NC(C)=C(C(=O)OC)C1c1ccccc1[N+](=O)[O-] [nifedipine, reference compound] |  |  |  | ~90 |
